According to US12703706B2, “Anthelmintic compounds comprising a thienopyridine structure” (Intervet Inc., priority 2020, dated 2026):

Experiments:
[1] = biological target: human Maxi K channel (BK channel), KCNMA1 (KCa1.1) and beta1 (KCNMB1) subunits (Homo sapiens, UniProt Q12791)
Procedure: In Vitro Assay: Agonistic Activity at the Human Maxi K Channel (BK Channel)
A CHO K1 cell line was stably transfected with the KCNMA1 (KCa1.1, U11058) and betal (KCNMB1) subunits of the human Maxi K channel (Ponte et al, Molecular Pharmacology 2012, 81(4), 567-577).
Cells were seeded in microtiter plates (black 384-well MTP, clear bottom) in a concentration of 20,000 cells/well in 25 μl medium and cultured for 20 to 24 hours at 37° C. and 5% CO2. After incubation, 25 μl of FMP-dye Blue-Tyrode's was added to each well and incubated at room temperature for 30 min. Ten minutes after addition of 12.5 μl compound solution, the plates are transferred to the FLIPR for measurement.
For the membrane potential measurements, plates were placed in the FLIPR Penta (Molecular Devices). The baseline measurement of the fluorescence was stared for 20 sec (Exc. 510-545 nm, Emm. 565-625 nm). Potential channel opening measurement was started by addition of 25 μl KCl-Tyrode (final assay concentration of the KCl-Tyrode: 70 mM KCl, 2 mM CaCl2, 1 mM MgCl2, 0.8 mM NaH2PO4, 5 mM Glucose, 28 mM Hepes, pH 7.4, including the voltage sensitive dye). The complete measurement takes 150 s.
EC50 values were determined in triplicate utilizing compound dilution series. The data were determined at least in two independent tests. The data were proceeded by using the ActivityBase XE Runner software (IDBS) for curve fitting and calculation of the half-maximal effective concentration.

[2] = system: Haemonchus contortus; assay: In vivo efficacy against Haemonchus contortus in jirds; details: in Meriones unguiculatus, 72 h, read-out: reduction of the Haemonchus contortus count
Procedure: In Vivo Assay: Efficacy Against Haemonchus contortus in Jirds
The jirds were orally infected with approximately 1500 third-stage larvae of Haemonchus contortus. Ten days after infection, the jirds in the treatment groups were treated once either orally or subcutaneously with compounds at a dose of 10 mg per kg bodyweight. For treatment, compounds were dissolved in a mixture of 10% Transcutol, 10% Cremophor EL and 80% physiological sodium chloride solution. Three days after treatment, the jirds were necropsied, and the larvae burden in the stomach was determined. The efficacy was defined as the reduction of the mean larvae count in the infected jirds of the treatment group in comparison to the infected jirds in an untreated control group (negative control).

[3] = system: D. immitis microfilaria (L1); assay: In vitro assay Dirofilaria immitis L1, motility of microfilaria; type: cell-based; details: 72 h, read-out: EC50 value, Dirofilaria immitis L1, reduction in motility vs DMSO, incubation 3 days
[4] = system: A. viteae microfilaria (L1); assay: In vitro assay Acanthocheilonema viteae L1, motility of microfilaria; details: 72 h, read-out: EC50 value, Acanthocheilonema viteae L1, reduction in motility vs DMSO, incubation 3 days
Procedure: Approximately 500 A. viteae microfilaria were added to a microtiter plate containing a nutrient medium and the test compound in DMSO at varying concentrations. After incubation for 3 days, activity was evaluated as reduction in motility as compared to DMSO as negative control.
Compounds were tested in duplicates. Based on the concentration response curves EC50 values were calculated.

human Maxi K channel (BK channel), KCNMA1 (KCa1.1) and beta1 (KCNMB1) subunits, sequence (Q12791 1-1178 isoform Q12791-5): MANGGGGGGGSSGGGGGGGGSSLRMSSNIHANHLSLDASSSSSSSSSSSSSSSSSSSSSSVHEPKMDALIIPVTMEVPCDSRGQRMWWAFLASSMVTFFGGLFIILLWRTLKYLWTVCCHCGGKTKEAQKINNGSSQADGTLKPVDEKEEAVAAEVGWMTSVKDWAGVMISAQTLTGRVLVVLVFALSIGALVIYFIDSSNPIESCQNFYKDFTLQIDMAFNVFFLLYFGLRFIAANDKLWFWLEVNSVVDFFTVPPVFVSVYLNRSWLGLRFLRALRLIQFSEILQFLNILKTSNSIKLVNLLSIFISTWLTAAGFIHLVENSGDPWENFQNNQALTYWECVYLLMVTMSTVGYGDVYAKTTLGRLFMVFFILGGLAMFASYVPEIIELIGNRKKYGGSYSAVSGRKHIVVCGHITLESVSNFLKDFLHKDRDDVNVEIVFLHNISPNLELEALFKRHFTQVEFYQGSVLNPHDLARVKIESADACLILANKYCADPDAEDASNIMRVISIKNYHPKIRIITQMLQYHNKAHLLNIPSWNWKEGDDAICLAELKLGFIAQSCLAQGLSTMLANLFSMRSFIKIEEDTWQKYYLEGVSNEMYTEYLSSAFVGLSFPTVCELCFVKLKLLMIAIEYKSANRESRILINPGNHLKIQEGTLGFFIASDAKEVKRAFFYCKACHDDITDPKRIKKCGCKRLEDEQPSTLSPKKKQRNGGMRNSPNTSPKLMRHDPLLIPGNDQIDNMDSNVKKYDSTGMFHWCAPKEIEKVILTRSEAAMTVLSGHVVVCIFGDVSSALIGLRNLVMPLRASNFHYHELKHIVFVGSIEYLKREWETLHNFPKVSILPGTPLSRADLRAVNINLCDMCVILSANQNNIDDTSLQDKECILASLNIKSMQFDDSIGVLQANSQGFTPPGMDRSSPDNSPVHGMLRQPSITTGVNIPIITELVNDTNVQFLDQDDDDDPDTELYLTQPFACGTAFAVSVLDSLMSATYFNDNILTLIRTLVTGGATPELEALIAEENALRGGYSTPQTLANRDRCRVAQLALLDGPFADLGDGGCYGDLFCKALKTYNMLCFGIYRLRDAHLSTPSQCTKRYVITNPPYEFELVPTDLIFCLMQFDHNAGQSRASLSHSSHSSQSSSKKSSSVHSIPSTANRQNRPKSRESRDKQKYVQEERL
human Maxi K channel (BK channel), KCNMA1 (KCa1.1) and beta1 (KCNMB1) subunits, sequence (Q16558 whole entry partner): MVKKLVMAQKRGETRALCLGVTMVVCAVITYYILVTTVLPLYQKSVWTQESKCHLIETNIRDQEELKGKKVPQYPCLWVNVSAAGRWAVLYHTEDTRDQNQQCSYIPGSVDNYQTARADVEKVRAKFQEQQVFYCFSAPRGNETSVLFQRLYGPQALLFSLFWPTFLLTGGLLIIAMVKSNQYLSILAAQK

Structure (SMILES): Cc1sc2c(N3CC(F)C3)c(C(=O)N[C@H]3CCOc4ccccc43)cnc2c1-c1cccc(Cl)c1Cl [Compound 62]
- EC50 [1]: > 30 µM
- inhibition in vivo at 10 mg/kg [2]: ≥ 80%

Structure (SMILES): Cc1sc2c(N3CC(F)C3)c(C(=O)N[C@H]3CCOc4ccccc43)cnc2c1-c1cc(Cl)cc(Cl)c1 [Compound 65]
- EC50 [1]: > 30 µM
- inhibition in vivo at 10 mg/kg [2]: ≥ 80%

Structure (SMILES): Cc1sc2c(N(C)C)c(C(=O)N[C@H]3CCOc4ccccc43)cnc2c1-c1cccc(Cl)c1Cl [Compound 36, (S)—N-(chroman-4-yl)-3-(2,3-dichlorophenyl)-7-dimethylamino-2-methylthieno[3,2-b]pyridine-6-carboxamide]
- EC50 [1]: > 30 µM
- inhibition in vivo at 10 mg/kg [2]: ≥ 80%

Structure (SMILES): O=C(Nc1cccc2ccccc12)c1cnc2c(-c3cccc(Cl)c3Cl)csc2c1N1CCOCC1 [Compound 14]
- EC50 [3]: < 10 µM
- EC50 [1]: > 30 µM

Structure (SMILES): CN1CCN(c2c(C(=O)N[C@H]3CCOc4ccccc43)cnc3c(-c4cccc(Cl)c4Cl)csc23)CC1 [Compound 17]
- EC50 [3]: < 10 µM
- EC50 [1]: > 30 µM
- EC50 [4]: < 10 µM

Structure (SMILES): Cc1sc2c(N3CCOCC3)c(C(=O)N[C@H]3CCOc4ccccc43)cnc2c1-c1cccc(Cl)c1Cl [Compound 72]
- EC50 [1]: > 30 µM
- inhibition in vivo at 10 mg/kg [2]: ≥ 80%

Structure (SMILES): Cc1sc2c(N(C)C)c(C(=O)N[C@H]3CCOc4ccccc43)cnc2c1-c1cc(Cl)cc(Cl)c1 [Compound 53]
- EC50 [1]: > 30 µM
- inhibition in vivo at 10 mg/kg [2]: ≥ 80%

Structure (SMILES): Cc1sc2c(N3CCOCC3)c(C(=O)N[C@H]3CCOc4ccccc43)cnc2c1-c1cc(Cl)cc(Cl)c1 [Compound 68]
- EC50 [1]: > 30 µM
- inhibition in vivo at 10 mg/kg [2]: ≥ 80%

Structure (SMILES): CN(C)c1c(C(=O)N[C@H]2CCOc3ccccc32)cnc2c(-c3cccc(Cl)c3Cl)csc12 [Compound 10]
- EC50 [1]: > 30 µM
- inhibition in vivo at 10 mg/kg [2]: ≥ 80%

Structure (SMILES): Cc1sc2c(N3CC(F)(F)C3)c(C(=O)N[C@H]3CCOc4ccccc43)cnc2c1-c1cccc(Cl)c1Cl [Compound 56]
- EC50 [1]: > 30 µM
- inhibition in vivo at 10 mg/kg [2]: ≥ 80%

Structure (SMILES): COCCNc1c(C(=O)N[C@H]2CCOc3ccccc32)cnc2c(-c3cc(F)cc(F)c3F)csc12 [Compound 82]
- EC50 [1]: > 30 µM

Structure (SMILES): O=C(N[C@H]1CCOc2ccccc21)c1cnc2c(-c3cccc(C(F)(F)F)c3)csc2c1NC1CC1 [Compound 89]
- EC50 [1]: > 30 µM

Structure (SMILES): Cc1sc2c(N3CCOCC3)c(C(=O)N[C@H]3CCCc4ccccc43)cnc2c1-c1cc(Cl)cc(Cl)c1 [Compound 67]
- EC50 [1]: > 30 µM

Structure (SMILES): O=C(N[C@H]1CCc2ccccc21)c1cnc2c(-c3cccc(Cl)c3Cl)csc2c1N1CC(F)C1 [Compound 99]
- EC50 [1]: > 30 µM

Structure (SMILES): O=C(N[C@H]1CCOc2ccccc21)c1cnc2c(-c3cccc(F)c3F)csc2c1N1CC(F)C1 [Compound 91]
- EC50 [1]: > 30 µM

Structure (SMILES): O=C(N[C@H]1CCOc2ccccc21)c1cnc2c(-c3cccc(C(F)(F)F)c3)csc2c1N1CCOCC1 [Compound 42]
- EC50 [1]: > 30 µM

Structure (SMILES): O=C(N[C@H]1CCOc2ccccc21)c1cnc2c(-c3cc(F)cc(F)c3F)csc2c1NC1CC1 [Compound 88]
- EC50 [1]: > 30 µM

Structure (SMILES): O=C(NC1COc2ccccc21)c1cnc2c(-c3cccc(Cl)c3Cl)csc2c1N1CCOCC1 (stereo not shown) [Compound 79]
- EC50 [1]: > 30 µM

Structure (SMILES): Cc1sc2c(N(C)C)c(C(=O)N[C@H]3CCCc4ccccc43)cnc2c1-c1cc(Cl)cc(Cl)c1 [Compound 38]
- EC50 [1]: > 30 µM

Structure (SMILES): O=C(N[C@H]1CCCc2ccccc21)c1cnc2c(-c3cc(Cl)cc(Cl)c3)csc2c1N1CCOCC1 [Compound 32]
- EC50 [1]: > 30 µM

Structure (SMILES): CN(C)c1c(C(=O)NC2CCOc3ccccc32)cnc2c(-c3cccc(Cl)c3Cl)csc12 (stereo not shown) [Compound 28]
- EC50 [1]: > 30 µM

Structure (SMILES): O=C(N[C@H]1CCOc2ccccc21)c1cnc2c(-c3cc(F)cc(F)c3)csc2c1N1CCOCC1 [Compound 45]
- EC50 [1]: > 30 µM

Structure (SMILES): O=C(N[C@H]1CCCc2ccccc21)c1cnc2c(-c3cccc(Cl)c3Cl)csc2c1N1CCOCC1 [Compound 13]
- EC50 [1]: 5 to 10 µM

Structure (SMILES): Cc1sc2c(N3CCOCC3)c(C(=O)N[C@H]3CCOc4ccccc43)cnc2c1-c1cccc(OC(F)(F)F)c1 [Compound 109]
- EC50 [1]: > 30 µM

Structure (SMILES): O=C(NC1COc2ccccc21)c1cnc2c(-c3cccc(Cl)c3)csc2c1N1CCOCC1 (stereo not shown) [Compound 80]
- EC50 [3]: < 10 µM
- EC50 [1]: > 30 µM

Structure (SMILES): O=C(N[C@H]1CCc2ccccc21)c1cnc2c(-c3cc(Cl)cc(Cl)c3)csc2c1N1CC(F)(F)C1 [Compound 77]
- EC50 [1]: > 30 µM

Structure (SMILES): Cc1sc2c(N(C)C)c(C(=O)N[C@H]3CCOc4ccccc43)cnc2c1-c1cccc(OC(F)(F)F)c1 [Compound 105]
- EC50 [1]: > 30 µM

Structure (SMILES): CN1CCN(c2c(C(=O)NC3CCCc4ccccc43)cnc3c(-c4cc(Cl)cc(Cl)c4)csc23)CC1 (stereo not shown) [Compound 30]
- EC50 [1]: > 30 µM

Structure (SMILES): O=C(N[C@@H]1COc2ccccc21)c1cnc2c(-c3cc(Cl)cc(Cl)c3)csc2c1N1CCOCC1 [Compound 100]
- EC50 [1]: > 30 µM

Structure (SMILES): Cc1sc2c(N(C)C)c(C(=O)N[C@H]3CCOc4ccccc43)cnc2c1-c1cc(F)cc(F)c1F [Compound 102]
- EC50 [1]: > 30 µM
- inhibition in vivo at 10 mg/kg [2]: ≥ 80%

Structure (SMILES): CN(C)c1c(C(=O)Nc2cccc3ccccc23)cnc2c(-c3cc(Cl)cc(Cl)c3)csc12 [Compound 50]
- EC50 [1]: > 30 µM

Structure (SMILES): C[C@H](NC(=O)c1cnc2c(-c3cc(Cl)cc(Cl)c3)csc2c1N(C)C)c1ccccc1 [Compound 8]
- EC50 [1]: > 30 µM

Structure (SMILES): Cc1sc2c(N3CCOCC3)c(C(=O)Nc3cccc4ccccc34)cnc2c1-c1cccc(Cl)c1Cl [Compound 74]
- EC50 [1]: > 30 µM
